US20230279020A9, “CARM1 INHIBITORS AND USES THEREOF” (Epizyme, Inc., priority 2013, published 2023)

Molecular target: Human CARM1 (PRMT4) (Homo sapiens (Human), UniProt Q86X55)
Test: CARM1 enzyme assay on peptide substrate (3H-SAM Flashplate)
Conditions: Biochemical potencies, classification codes; read-out: Biochem IC50
Excerpt: S-adenosylmethionine (SAM), S-adenosylhomocysteine (SAH), bicine, Tween20, dimethylsulfoxide (DMSO), bovine skin gelatin (BSG), sodium butyrate and Tris(2-carboxyethyl)phosphine hydrochloride solution (TCEP) were purchased from Sigma-Aldrich at the highest level of purity possible. ^3H-SAM was purchase from American Radiolabeled Chemicals with a specific activity of 80 Ci/mmol. 384-well streptavidin Flashplates were purchased from PerkinElmer.
Peptide representative of human histone H3 residues 16-30 was synthesized with an N-terminal linker-affinity tag motif and a C-terminal amide cap by 21st Century Biochemicals. […] The sequence was Biot-Ahx-[…]-amide and contained a monomethylated arginine at position 26 (SEQ ID NO.:1).
The gene sequence encoding isoform1 containing a deletion of amino acids 539-561 was amplified subsequently and subcloned into pFastBacMam (Viva Biotech).
Recombinant baculovirus were generated according to Bac-to-Bac kit instructions (Life Technologies). Protein over-expression was accomplished by infecting exponentially growing HEK 293F cell culture at 1.3×10^6cell/ml with virus (MOI=10) in the presence of 8 mM sodium butyrate. Infections were carried out at 37° C. for 48 hours, harvested by centrifugation, and stored at −80° C. for purification.
Expressed full-length human Flag- and His-tagged CARM1 protein was purified from cell paste by anti-flag M2 affinity chromatography with resin equilibrated with buffer containing 20 mM Tris, 150 mM NaCl, 5% glycerol, pH 7.8. Column was washed with 500 mM NaCl in buffer A and Flag-CARM1-His was eluted with 200 ug/ml FLAG peptide in buffer A. Pooled fractions were dialyzed in 20 mM Tris, 150 mM NaCl, 5% glycerol and 1 mM DTT, pH 7.8.
The assays were all performed in a buffer consisting of 20 mM Bicine (pH=7.6), 1 mM TCEP, 0.005% BSG, and 0.002% Tween 20, prepared on the day of use. Compounds in 100% DMSO (1 ul) were spotted into a polypropylene 384-well V-bottom plates (Greiner) using a Platemate Plus outfitted with a 384-channel head (Thermo Scientific). DMSO (1 ul) was added to Columns 11, 12, 23, 24, rows A-H for the maximum signal control and 1 ul of SAH, a known product and inhibitor of CARM1, was added to columns 11, 12, 23, 24, rows I-P for the minimum signal control. A cocktail (40 ul) containing the CARM1 enzyme was added by Multidrop Combi (Thermo-Fisher). The compounds were allowed to incubate with CARM1 for 30 min at room temperature, then a cocktail (10 ul) containing ^3H-SAM and peptide was added to initiate the reaction (final volume=51 ul). The final concentrations of the components were as follows: CARM1 was 0.25 nM, ^3H-SAM was 30 nM, peptide was 250 nM, SAH in the minimum signal control wells was 1 mM, and the DMSO concentration was 2%. The assays were stopped by the addition of non-radiolabeled SAM (10 ul) to a final concentration of 300 uM, which dilutes the ^3H-SAM to a level where its incorporation into the peptide substrate is no longer detectable. 50 ul of the reaction in the 384-well polypropylene plate was then transferred to a 384-well Flashplate and the biotinylated peptides were allowed to bind to the streptavidin surface for at least 1 hour before being washed once with 0.1% Tween20 in a Biotek ELx405 plate washer. The plates were then read in a PerkinElmer TopCount plate reader to measure the quantity of ^3H-labeled peptide bound to the Flashplate surface, measured as disintegrations per minute (dpm) or alternatively, referred to as counts per minute (cpm).
where dpm=disintegrations per minute, cmpd=signal in assay well, and min and max are the respective minimum and maximum signal controls.
where top and bottom are the normally allowed to float, but may be fixed at 100 or 0 respectively in a 3-parameter fit. The Hill Coefficient normally allowed to float but may also be fixed at 1 in a 3-parameter fit. Y is the % inhibition and X is the compound concentration.

Human CARM1 (PRMT4), sequence (Q86X55 other isoform, or with tags, fused parts or gaps isoform Q86X55-1): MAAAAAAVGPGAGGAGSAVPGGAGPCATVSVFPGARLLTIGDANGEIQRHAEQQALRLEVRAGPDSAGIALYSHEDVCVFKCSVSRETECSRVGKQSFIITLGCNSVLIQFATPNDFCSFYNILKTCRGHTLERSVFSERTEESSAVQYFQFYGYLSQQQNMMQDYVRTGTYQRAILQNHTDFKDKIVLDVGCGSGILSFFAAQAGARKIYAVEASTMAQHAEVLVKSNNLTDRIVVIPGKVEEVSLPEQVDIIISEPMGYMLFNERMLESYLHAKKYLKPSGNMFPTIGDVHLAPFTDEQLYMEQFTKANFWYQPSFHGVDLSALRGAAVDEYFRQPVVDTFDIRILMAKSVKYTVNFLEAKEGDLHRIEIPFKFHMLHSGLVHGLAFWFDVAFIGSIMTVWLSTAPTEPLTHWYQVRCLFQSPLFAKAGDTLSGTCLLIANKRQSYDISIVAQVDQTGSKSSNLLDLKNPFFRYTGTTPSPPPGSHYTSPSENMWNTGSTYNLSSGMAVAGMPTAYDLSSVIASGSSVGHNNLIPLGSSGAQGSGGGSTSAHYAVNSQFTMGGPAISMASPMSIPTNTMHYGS

IC50 [nM] | Compound
< 100 | CCN1CCN(c2cc(-c3c(C)noc3C)nc(-c3cccc(OCC(O)CNC)c3)n2)CC1 (centres unmarked) [Example 20-1a]
< 100 | CNCC(O)COc1cccc(-c2nc(-c3c(C)noc3C)c(C)c(N(C)[C@H]3C[C@@](C)(OC)C3)n2)c1 (some centres unmarked) [Example 20-3]
< 100 | CNCC(O)COc1cccc(-c2nc(Nc3cncnc3)cc(-c3c(C)noc3C)n2)c1 (centres unmarked) [Example 21-1a]
< 100 | CNCC(O)COc1cc(Cl)cc(-c2nc(NC3CCN(CC(F)F)CC3)c(C)c(-c3c(C)noc3C)n2)c1 (centres unmarked) [Example 21-3]
< 100 | CNCC(O)COc1cccc(-c2nc(NC(C)C)cc(N(C)C3CCOCC3)n2)c1 (centres unmarked) [Example 22-1]
< 100 | CNCC(O)COc1cc(Cl)cc(-c2nc(NC3CCN(C4CC4)CC3)c(C)c(-c3c(C)noc3C)n2)c1 (centres unmarked) [Example 22-3]
< 100 | CNCC(O)COc1cccc(-c2nc(-c3cccc(C#N)c3)cc(N(C)CCC#N)n2)c1 (centres unmarked) [Example 24-1]
< 100 | CCOC(=O)N1CCOC[C@H]1CNc1nc(-c2cc(OC[C@@H](O)CNC)ccc2Cl)nc(-c2c(C)noc2C)c1C [Example 24-3]
< 100 | CNCC(O)COc1cc(OC)cc(-c2nc(C3CC3)cc(N(C)C3CCOCC3)n2)c1 (centres unmarked) [Example 25-1]
< 100 | CCOC(=O)N1CCOC[C@H]1CNc1nc(-c2cc(OC[C@H](O)CNC)ccc2Cl)nc(-c2c(C)noc2C)c1C [Example 25-3]
< 100 | CNCC(O)COc1cccc(-c2nc(N[C@H]3CCOC3)c(C)c(N3CCOCC3)n2)c1 (some centres unmarked) [Example 26-1]
< 100 | CNC[C@H](O)COc1ccc(F)c(-c2nc(NC3CCN(C(=O)OC)CC3)c(C)c(-c3c(C)noc3C)n2)c1 [Example 26-3]
< 100 | CNCC(O)COc1cccc(-c2nc(NC)cc(-c3c(C)noc3C)n2)c1 (centres unmarked) [Example 27-1a]
< 100 | CCOC(=O)N1CCCCC1CNc1nc(-c2cc(OC[C@@H](O)CNC)ccc2Cl)nc(-c2c(C)noc2C)c1C (some centres unmarked) [Example 27-3]
< 100 | CCOC(=O)N1CCN(c2cc(-c3c(C)noc3C)nc(-c3cccc(OCC(O)CNC)c3)n2)CC1 (centres unmarked) [Example 28-1a]
< 100 | CCOC(=O)N1CCCCC1CNc1nc(-c2cc(OC[C@H](O)CNC)ccc2Cl)nc(-c2c(C)noc2C)c1C (some centres unmarked) [Example 28-3]
< 100 | CNCC(O)COc1cccc(-c2nc(NCCOC)cc(-c3cc4ccccc4o3)n2)c1 (centres unmarked) [Example 29-1]
< 100 | CNCC(O)COc1cccc(-c2nc(-c3c(C)noc3C)cc(N3CCNC(C(=O)O)C3)n2)c1 (centres unmarked) [Example 29-1a]
< 100 | CNCC(O)COc1ccc(Cl)c(-c2nc(NC3CCOCC3)c(C)c(-c3c(C)noc3C)n2)c1 (centres unmarked) [Example 29-3]
< 100 | CNCC(O)COc1cccc(-c2nc(-c3c(C)noc3C)cc(N3CCN(C4CC4)CC3)n2)c1 (centres unmarked) [Example 30-1a]
< 100 | CNCC(O)COc1ccc(Cl)c(-c2nc(NCC3CCOC3)c(C)c(-c3c(C)noc3C)n2)c1 (centres unmarked) [Example 30-3]
< 100 | CNCC(O)COc1cccc(-c2nc(NC3CCOC3)cc(-c3c(C)noc3C)n2)c1 (centres unmarked) [Example 31-1a]
< 100 | CNCC(O)COc1ccc(Cl)c(-c2nc(NCC3CCCCO3)c(C)c(-c3c(C)noc3C)n2)c1 (centres unmarked) [Example 31-3]
< 100 | CNCC(O)COc1cccc(-c2nc(-c3cccnc3)cc(N(C)C3CCOCC3)n2)c1 (centres unmarked) [Example 32-1]
< 100 | CNCC(O)COc1cccc(-c2nc(N[C@H]3CC[C@H](O)CC3)cc(-c3c(C)noc3C)n2)c1 (some centres unmarked) [Example 32-1a]
< 100 | CNC[C@@H](O)COc1cccc(-c2nc(NC3CCN(C(=O)OC)C(C)C3)c(C)c(-c3c(C)noc3C)n2)c1 (some centres unmarked) [Example 32-3]
< 100 | CNCC(O)COc1cccc(-c2nc(NC3CCOCC3)cc(-c3c(C)noc3C)n2)c1 (centres unmarked) [Example 33-1]

IC50 [nM] | Compound
< 100 | CNCC(O)COc1cccc(-c2nc(N[C@H]3CC[C@@H](O)CC3)cc(-c3c(C)noc3C)n2)c1 (some centres unmarked) [Example 33-1a]
< 100 | CNC[C@H](O)COc1cccc(-c2nc(NC3CCN(C(=O)OC)C(C)C3)c(C)c(-c3c(C)noc3C)n2)c1 (some centres unmarked) [Example 33-3]
< 100 | CNCC(O)COc1cccc(-c2nc(NCCOC)cc(-c3cnn(CC(C)C)c3)n2)c1 (centres unmarked) [Example 34-1]
< 100 | CNCC(O)COc1cccc(-c2nc(-c3c(C)noc3C)c(C)c(N(C)C3CCOCC3)n2)c1 (centres unmarked) [Example 34-1a]
< 100 | CNCC(O)COc1cccc(-c2nc(-c3c(C)noc3C)c(C)c(N3CCn4ccnc4C3)n2)c1 (centres unmarked) [Example 34-3]
< 100 | CNCC(O)COc1cccc(-c2nc(-c3c(C)noc3C)cc(N3CCNC(C)C3)n2)c1 (centres unmarked) [Example 35-1a]
< 100 | CNCC(O)COc1cccc(-c2nc(-c3c(C)noc3C)c(C)c(N3Cc4cccnc4C3)n2)c1 (centres unmarked) [Example 35-3]
< 100 | CNCC(O)COc1cccc(-c2nc(N3CCOCC3)cc(N(C)C3CCOCC3)n2)c1 (centres unmarked) [Example 36-1]
< 100 | CNCC(O)COc1cccc(-c2nc(-c3c(C)noc3C)cc(N3CCNC(C)(C)C3)n2)c1 (centres unmarked) [Example 36-1a]
< 100 | CNCC(O)COc1ccc(Cl)c(-c2nc(O[C@H]3CCN(C(=O)OC)[C@@H](C)C3)c(C)c(-c3c(C)noc3C)n2)c1 (some centres unmarked) [Example 36-3]
< 100 | CNCC(O)COc1cccc(-c2nc(N3CCOCC3)c(C)c(N(C)[C@H]3CCOC3)n2)c1 (some centres unmarked) [Example 37-1]
< 100 | CNCC(O)COc1ccc(Cl)c(-c2nc(NC3CC4(CCN(C(=O)OC)CC4)C3)c(C)c(-c3c(C)noc3C)n2)c1 (centres unmarked) [Example 37-3]
< 100 | CNCC(O)COc1cccc(-c2nc(-c3c(C)noc3C)cc(N3CCN(C(C)=O)[C@@H](C)C3)n2)c1 (some centres unmarked) [Example 38-1a]
< 100 | CNCC(O)COc1ccc(Cl)c(-c2nc(NC3CC(O)(C(F)(F)F)C3)c(C)c(-c3c(C)noc3C)n2)c1 (centres unmarked) [Example 38-3]
< 100 | CNCC(O)COc1cccc(-c2nc(-c3c(C)noc3C)cc(N3CCN(C(C)=O)C[C@H]3C)n2)c1 (some centres unmarked) [Example 39-1a]
< 100 | CNCC(O)COc1ccc(Cl)c(-c2nc(N[C@H]3CCC[C@@H](O)C3)c(C)c(-c3c(C)noc3C)n2)c1 (some centres unmarked) [Example 39-3]
< 100 | CNCC(O)COc1cccc(-c2nc(-c3c(C)noc3C)cc(N3CCN[C@@H](C)C3)n2)c1 (some centres unmarked) [Example 40-1a]
< 100 | CNC[C@@H](O)COc1ccc(F)c(-c2nc(NC3CCN(C(=O)OC)CC3)c(C)c(-c3c(C)noc3C)n2)c1 [Example 40-3]
< 100 | CNCC(O)COc1cccc(-c2nc(-c3cnn(CC(C)C)c3)cc(N(C)CCC#N)n2)c1 (centres unmarked) [Example 41-1]
< 100 | CNCC(O)COc1cccc(-c2nc(N[C@H]3C[C@@H](O)C3)cc(-c3c(C)noc3C)n2)c1 (some centres unmarked) [Example 41-1a]
< 100 | CNCC(O)COc1ccc(Cl)c(-c2nc(NCC3COCCO3)c(C)c(-c3c(C)noc3C)n2)c1 (centres unmarked) [Example 41-3]
< 100 | CNCC(O)COc1cccc(-c2nc(NCCCN3CCCC3=O)cc(C3=CCCC3)n2)c1 (centres unmarked) [Example 42-1]
< 100 | CNCC(O)COc1cccc(-c2nc(-c3c(C)noc3C)cc(N3CCC4(CC3)NC(=O)NC4=O)n2)c1 (centres unmarked) [Example 42-1a]
< 100 | CCOC(=O)N1CCOC[C@@H]1CNc1nc(-c2cc(OC[C@@H](O)CNC)ccc2Cl)nc(-c2c(C)noc2C)c1C [Example 42-3]
< 100 | CNCC(O)COc1cccc(-c2nc(N[C@H]3C[C@H](O)C3)cc(-c3c(C)noc3C)n2)c1 (some centres unmarked) [Example 43-1a]
< 100 | CNC[C@H](O)COc1ccc(Cl)c(-c2nc(N[C@H]3CCN(C4CC4)C[C@H]3F)c(C)c(-c3c(C)noc3C)n2)c1 [Example 43-3]
